Source: patent US20180243212A1, “TRANSDERMAL FORMULATIONS FOR DELIVERY OF DOXYCYCLINE, AND THEIR USE IN THE TREATMENT OF DOXYCYCLINE-RESPONSIVE DISEASES AND CONDITIONS” (DELIVRA, INC., priority 2015, published 2018)

Columns and labels:
[1] = compounded from commercial tablets in the vehicles; Papich et al. (2013); cited from earlier work
[2] = Quantification of doxycycline in formulations 1-3 by LC-MS/MS (stability); type: physicochemical; details: over the time period studied (three months) under the storage conditions 5-25° C.
Experimental: 2.0-5.0 mg of doxycycline hyclate, usp (Medisca, CAS 24390-14-5, code 0434-04, lot 59177/D) was weighed into a scintillation vial and the mass was recorded. The recorded mass was then used to calculate the volume of solvent needed to generate a final concentration of 1 mg/mL and that amount of 60:28:12 H2O:CH3CN:MeOH was accurately added to the vial using a pipette. The solution was vortexed for 30 seconds or until the doxycycline hyclate was completely dissolved.
A 50 μg/mL solution of doxycycline hyclate was prepared by adding 50 μL of 1 mg/mL stock solution to 950 μL of methanol/water (50:50) and the resulting solution was vortexed for 10 seconds. […]
5-10 mgs of exemplary formulation 3 to be analyzed was weighed into a scintillation vial in duplicate. The mass was recorded and used to calculate the amount of methanol/water (50:50) to add to make up to 1 mg/mL and this was added. […]
Doxycycline was extracted in methanol:water from cream formulations by sonication, diluted and then quantified using liquid chromatography-triple quadruple mass spectrometry (LC-MS/MS). A calibration curve calculated by the peak area ratio of concentration of an analytical standard of doxycycline to an internal standard was used to calculate the concentrations of unknowns and establish linearity and LLOQ. […]

degradation of the doxycycline [2]: < 10%
Substance: Doxycycline
time over which the concentration of DOX can be assured [1]: ≤ 7 days
